Here are results for one compound from US11092532B2, “Method and device for label-free, high throughput holographic screening and enumeration of tumor cells in blood” (Texas Tech University System, priority 2017, dated 2021).

One data set concerns breast cancer cells MCF7. The experiment in a line: inline-DHM cytometry for drug response analysis. The class given is cell-based.
In data set [1] the test system is breast cancer cell line MCF-7. Put plainly: dose-dependent cytotoxicity, viability analysis using standard epifluorescence microscopy. The format is cell-based. Conditions: FIG. 8B.
From the text: The method involves using a microfluidic device with multiple inlets to flow different samples adjacent to each other as shown in FIG. 8A. Since the flow is laminar, there is no mixing and identity of each sample is encoded spatially into the microfluidic device. Integrating DHM into this multi-inlet device, the inventors can capture holograms where each hologram contains information of the multiple samples that are spatially segregated. […] FIG. 8A is an image showing a multiple entry microfluidic device for parallel loading of multiple samples. Red arrows indicate the recording window for DHM cytometry for drug response analysis. […] For example, in drug screening there is a need to conduct dose response analysis where different drug concentrations are used to test their impact on the viability of cells (see FIG. 8B for viability analysis using standard fluorescence imaging). To achieve parallel analysis, cells treated with different doses of drug can be introduced into the multi-inlet device and label-free DHM can be used to obtain dose-response curves. Cell culture and drug treatment can also be conducted in the inlet wells of the device or additional microfluidic devices can be daisy-chained prior to DHM interrogation.

From the text for breast cancer cells MCF7: Briefly, as shown in FIG. 1A the in-line DHM arrangement consists of a laser, a spatial filter and collimator assembly, and an inverted optical microscope (IX-71, Olympus Inc.). A He—Ne laser (10 mW, λ, =0.6328 μm, Thorlabs) is used as a light source, operating in continuous wave (CW) mode. The laser beam is filtered and expanded by a spatial filter assembly consisting of a microscope objective (10×, NA=0.25; Thorlabs) and a pinhole (25 μm diameter). The expanded beam is then collimated using a plano-convex lens (focal length, f=100 mm, Thorlabs). The diameter of the collimated beam is approximately 5 mm. This collimated beam of laser light illuminates cells or beads flowing in the microfluidic channel. The flow through the channel is generated by a syringe pump (KD Scientific). The cross-sectional dimensions of the channel are 1000(y)×350(z) μm^2. The 2D hologram of cells or beads is generated in the focal plane of the microscope objective (M=10×, NA=0.25; Thorlabs) of the optical microscope. The magnified image of the hologram is recorded on a CMOS camera (Phantom v310, Vision Research) at a resolution of 512×512 (20 μm/pixel) and 12-bit gray level quantization.
The recoded holograms were transferred to a computer for numerical reconstruction and data analysis.
The probability distribution corresponding to maximum intensity (Imax) of center pixel of focused image of breast cancer cells (MCF7) at different doses of doxorubicin (FIG. 9A) 0.0 μM, (FIG. 9B) 0.0001 μM, (FIG. 9C) 0.01 μM, and (FIG. 9D) 0.1 μM.

In the case of `COc1cccc2c1C(=O)c1c(O)c3c(c(O)c1C2=O)C[C@@](O)(C(=O)CO)C[C@@H]3O[C@H]1C[C@H](N)[C@H](O)[C@H](C)O1` [doxorubicin], the “maximum intensity (Imax) distribution of focused cell image” value is “some are affected and their peak intensity shifts to lower values” in the data set with breast cancer cells MCF7 (MCF-7 cells treated with 0.0001 μM doxorubicin, FIG. 9B); “the number of cells showing lower intensity (Imax) increases” with breast cancer cells MCF7 (MCF-7 cells treated with 0.01 μM doxorubicin, FIG. 9C); “the number of cells showing lower intensity (Imax) increases” in the data set with breast cancer cells MCF7 (MCF-7 cells treated with 0.1 μM doxorubicin, FIG. 9D). In addition, the “cytotoxicity (viability of cells)” value in data set [1] was “dose-dependent cytotoxicity”.
